From the NIST ThermoML archive (doi:10.1016/j.fluid.2006.01.027)
Numbers after ± are expanded uncertainties.

Conditions: Liquid, Pulse-echo method

C=CCCCCCCCCCCCCCC [1-hexadecene]
speed of sound [m/s]
Conditions | 373.15 K | 383.15 K | 393.15 K | 403.15 K | 413.15 K | 423.15 K | 433.15 K
100 kPa | 1073.8 ± 2.5 | 1041.7 ± 2.5 | 1010.2 ± 2.4 | 979.2 ± 2.4 | 948.7 ± 2.4 | 918.8 ± 2.3 | 889.2 ± 2.3
2500 kPa | 1091.4 ± 2.6 | 1060.1 ± 2.5 | 1029.3 ± 2.5 | 999.1 ± 2.4 | 969.4 ± 2.4 | 940.3 ± 2.4 | 911.7 ± 2.3
5000 kPa | 1109.2 ± 2.6 | 1078.6 ± 2.5 | 1048.5 ± 2.5 | 1019 ± 2.4 | 990.1 ± 2.4 | 961.8 ± 2.4 | 934 ± 2.3
10000 kPa | 1143.1 ± 2.6 | 1113.6 ± 2.6 | 1084.8 ± 2.5 | 1056.6 ± 2.5 | 1029 ± 2.5 | 1002 ± 2.4 | 975.7 ± 2.4
15000 kPa | 1175 ± 2.7 | 1146.5 ± 2.6 | 1118.8 ± 2.6 | 1091.6 ± 2.6 | 1065.2 ± 2.5 | 1039.3 ± 2.5 | 1014.1 ± 2.4
20000 kPa | 1205.2 ± 2.7 | 1177.7 ± 2.7 | 1150.8 ± 2.6 | 1124.6 ± 2.6 | 1099 ± 2.6 | 1074.1 ± 2.5 | 1049.8 ± 2.5
30000 kPa | 1261.4 ± 2.8 | 1235.3 ± 2.8 | 1209.9 ± 2.7 | 1185.2 ± 2.7 | 1161.2 ± 2.7 | 1137.8 ± 2.6 | 1115 ± 2.6
40000 kPa | 1313 ± 2.9 | 1288.1 ± 2.9 | 1263.8 ± 2.8 | 1240.3 ± 2.8 | 1217.4 ± 2.7 | 1195.2 ± 2.7 | 1173.6 ± 2.7
60000 kPa | 1405.5 ± 3.1 | 1382.4 ± 3 | 1360 ± 3 | 1338.2 ± 3 | 1317 ± 2.9 | 1296.5 ± 2.9 | 1276.6 ± 2.8
80000 kPa | 1487.6 ± 3.2 | 1465.8 ± 3.2 | 1444.6 ± 3.2 | 1424.1 ± 3.1 | 1404.2 ± 3.1 | 1384.9 ± 3 | 1366.2 ± 3
100000 kPa | 1561.6 ± 3.4 | 1540.9 ± 3.3 | 1520.8 ± 3.3 | 1501.3 ± 3.3 | 1482.4 ± 3.2 | 1464 ± 3.2 | 1446.2 ± 3.2
